Measurements as given in PMC8528861, “Structural and functional analysis of target recognition by the lymphocyte adaptor protein LNK” (Nature Communications, 2021).

How the values were obtained:
Test in all cases: Thermostability assay
Conditions in all cases: for Tm: protein 100 μM, peptide five-fold molar excess, phenyl phosphate 8 mM; for delta Tm / Tm, plus phosphotyrosine: 10 mM phosphotyrosine; for delta Tm: relative to apo Tm; for Tm, plus phosphotyrosine: protein 30 μM in PBS
R387H LNK SH2 domain = molecular target: T1, R387H LNK SH2 domain (Mus musculus, UniProt O09039, R387H); type: binding
T1 construct: DNA encoding the mouse LNK SH2 domain (residues 324–446) and an N-terminal NusA; NusA (N, cleaved yes); made in house; host or cells: E. coli
Description: (§1) Using mouse SH2 domain equivalents of these variants we investigated whether the incorporation of these mutations affected protein stability by measuring their melting point (Tm).
(§2) For peptide and phenyl phosphate experiments, proteins were desalted into 100 mM NaCl, 20 mM Tris (pH 8.0), 2 mM TCEP buffer and diluted to 100 μM. Where peptides were used, a five-fold molar excess of peptide was added to each sample, in phenyl phosphate conditions concentration was 8 mM. For experiments were phosphotyrosine, proteins were diluted to 30 μM in PBS and in phosphate conditions, concentration was 10 mM. Ten mcroliter of each sample was transferred into a capillary and measured from 35 to 95 °C using a Tycho N6T (Nanotemper). Data were analyzed in Prism.

WT LNK SH2 domain = molecular target: T2, WT LNK SH2 domain (Mus musculus, UniProt O09039); type: binding
T2 construct: DNA encoding the mouse LNK SH2 domain (residues 324–446) and an N-terminal NusA; NusA (N, cleaved yes); made in house; host or cells: E. coli (tuner (DE3), BL21(DE3) or C43)
Description: as §1, §2

R387C LNK SH2 domain = molecular target: T3, R387C LNK SH2 domain (Mus musculus, UniProt O09039, R387C); type: binding
T3 construct: DNA encoding the mouse LNK SH2 domain (residues 324–446) and an N-terminal NusA; NusA (N, cleaved yes); made in house; host or cells: E. coli
Description: as §1, §2

V374M LNK SH2 domain = type: binding, mouse
Description: as §1, §2

T2 sequence (O09039 324-446): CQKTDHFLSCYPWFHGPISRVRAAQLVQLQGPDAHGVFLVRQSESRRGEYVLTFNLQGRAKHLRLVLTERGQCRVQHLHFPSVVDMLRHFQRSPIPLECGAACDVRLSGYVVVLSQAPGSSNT
T3 sequence (O09039 324-446 R387C): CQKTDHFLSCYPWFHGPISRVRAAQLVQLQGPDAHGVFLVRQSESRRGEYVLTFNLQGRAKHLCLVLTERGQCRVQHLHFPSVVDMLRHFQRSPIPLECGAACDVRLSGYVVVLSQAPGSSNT
T1 sequence (O09039 324-446 R387H): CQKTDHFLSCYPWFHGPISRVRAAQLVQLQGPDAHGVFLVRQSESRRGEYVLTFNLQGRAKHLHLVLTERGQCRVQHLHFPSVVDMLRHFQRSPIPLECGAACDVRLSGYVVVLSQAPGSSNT

O=P(O)(O)Oc1ccccc1 [Phenyl Phos, phenyl phosphate]
Tm (R387H LNK SH2 domain; replicate 1): 55.7 °C
Tm (R387H LNK SH2 domain; replicate 2): 56.0 °C
Tm (R387H LNK SH2 domain; replicate 3): 56.2 °C
Tm (WT LNK SH2 domain; replicate 1): 60.6 °C
Tm (WT LNK SH2 domain; replicate 2): 61.6 °C
Tm (WT LNK SH2 domain; replicate 3): 60.8 °C
Tm (R387C LNK SH2 domain; replicate 1): 56.6 °C
Tm (R387C LNK SH2 domain; replicate 2): 54.9 °C
Tm (R387C LNK SH2 domain; replicate 3): 54.8 °C
Tm (V374M LNK SH2 domain; replicate 1): 54.0 °C
Tm (V374M LNK SH2 domain; replicate 2): 54.3 °C
Tm (V374M LNK SH2 domain; replicate 3): 54.7 °C

N[C@@H](Cc1ccc(OP(=O)(O)O)cc1)C(=O)O [Phosphotyrosine, phosphotyrosine]
delta Tm (R387H LNK SH2 domain; replicate 1): 3.9 °C
delta Tm (R387H LNK SH2 domain; replicate 2): 3.9 °C
delta Tm (R387H LNK SH2 domain; replicate 3): 3.6 °C
delta Tm (R387H LNK SH2 domain; replicate 4): 3.4 °C
delta Tm (R387H LNK SH2 domain; replicate 5): 3.5 °C
Tm, plus phosphotyrosine (R387H LNK SH2 domain; replicate 1): 55.2 °C
Tm, plus phosphotyrosine (R387H LNK SH2 domain; replicate 2): 55.2 °C
Tm, plus phosphotyrosine (R387H LNK SH2 domain; replicate 3): 54.8 °C
Tm, plus phosphotyrosine (R387H LNK SH2 domain; replicate 4): 54.9 °C
Tm, plus phosphotyrosine (R387H LNK SH2 domain; replicate 5): 55 °C
delta Tm (WT LNK SH2 domain; replicate 1): 6.6 °C
delta Tm (WT LNK SH2 domain; replicate 2): 8.1 °C
delta Tm (WT LNK SH2 domain; replicate 3): 7.6 °C
delta Tm (WT LNK SH2 domain; replicate 4): 8.1 °C
Tm, plus phosphotyrosine (WT LNK SH2 domain; replicate 1): 61.1 °C
Tm, plus phosphotyrosine (WT LNK SH2 domain; replicate 2): 61.7 °C
Tm, plus phosphotyrosine (WT LNK SH2 domain; replicate 3): 61.9 °C
Tm, plus phosphotyrosine (WT LNK SH2 domain; replicate 4): 62.5 °C
delta Tm (R387C LNK SH2 domain; replicate 1): 5.7 °C
delta Tm (R387C LNK SH2 domain; replicate 2): 6.5 °C
delta Tm (R387C LNK SH2 domain; replicate 3): 6.1 °C
delta Tm (R387C LNK SH2 domain; replicate 4): 6.2 °C
delta Tm (R387C LNK SH2 domain; replicate 5): 6.4 °C
Tm, plus phosphotyrosine (R387C LNK SH2 domain; replicate 1): 56.8 °C
Tm, plus phosphotyrosine (R387C LNK SH2 domain; replicate 2): 57.5 °C
Tm, plus phosphotyrosine (R387C LNK SH2 domain; replicate 3): 57.1 °C
Tm, plus phosphotyrosine (R387C LNK SH2 domain; replicate 4): 57.2 °C
Tm, plus phosphotyrosine (R387C LNK SH2 domain; replicate 5): 57.6 °C
delta Tm (V374M LNK SH2 domain; replicate 1): 3.1 °C
delta Tm (V374M LNK SH2 domain; replicate 2): 3.2 °C
delta Tm (V374M LNK SH2 domain; replicate 3): 3.3 °C
delta Tm (V374M LNK SH2 domain; replicate 4): 3.2 °C
delta Tm (V374M LNK SH2 domain; replicate 5): 3.4 °C
Tm, plus phosphotyrosine (V374M LNK SH2 domain; replicate 1): 55 °C
Tm, plus phosphotyrosine (V374M LNK SH2 domain; replicate 2): 55.1 °C
Tm, plus phosphotyrosine (V374M LNK SH2 domain; replicate 3): 55.2 °C
Tm, plus phosphotyrosine (V374M LNK SH2 domain; replicate 4): 55.2 °C
Tm, plus phosphotyrosine (V374M LNK SH2 domain; replicate 5): 55.2 °C
